Measurements as given in patent US20140194506A1, “Use of Potassium Piperonyl Pentadienoate for Lowering Blood Lipid” (INNER MONGOLIA UNIVERSITY, priority 2011, published 2014).
Several values for one entry are separate records, joined by “and”; a condition that tells them apart may be missing. Equal entries are not always repeated.

What was measured:
[1] = tested on: high lipid mode white rats; test: Prophylactic blood lipid lowering in high lipid feed white rats (Example 2); type: in vivo, Wistar male white rats
From the text: High lipid feed formula: cholesterol 3%, lard 10%, sodium cholate 0.5%, basal feed: […] (formula: flour 17.14%, rice flour 8.57%, maize […], bran 21%, fish flour 1.71%, dairy salt 0.857%, vitamin 0.085%, bean material 17.14%).
60 Wistar White male rats of 150±10 g of body weight were fed with common standard feed for 5 days, and then divided into 6 groups randomly. Each group included 10 rats. Group I was a blank group, where the rats were fed with common standard feed. Group II was a high lipid feed mode control group. Group III was a Simvastatin 10 mg/kg group. Group IV was a GB-O group. Group V was a GB-H group. Group VI was a GB-K group. High lipid feed mode control group were fed with high lipid feed together with distilled water. Groups III, IV, V, and VI were fed with high lipid feed together with required simvastatin, GB-O, GB-H, and GB-K suspensions (formulated by grinding with 0.5% sodium […] CMC-Na) respectively. The dosing amount was 0.046 mmol/kg, and the amount of high lipid feed was 20 g per day for each rat. The grouping and the dosing amount for each group can be found in table 1.
(§1) The body weights of white rats were determined and recorded every day. The rats in each group were dosed basing on its body weight by feeding for 14 days at 22° C. of room temperature and 40-50% of relative humidity. On the 14th day, after fasting and freely receiving water for 16 hours, its blood was sampled from aorta, placed for 30 min to blood coagulate, and centrifugated for 15 min at 3000 r/min to separate serum. The values of serum total cholesterol (TC), and triglyceride (TG) were determined on an automatic analyzer using enzymatic colorimetry, the value of high density lipoprotein cholesterol (HDL) was determined using a phosphotungstic acid-Mg precipitation method, and the value of low density lipoprotein cholesterol (LDL) was determined using the polyvinyl sulfate precipitation method.
(§2) All data were treated statistically, and were presented as means±standard deviations (x±s). The significance of difference was judged by T test. The calculation of p value was obtained by comparing the high lipid mode group with the blank control group, and comparing other test drug groups with the high lipid mode group.
(§3) The reaction temperature was 37° C. The cholesterol ester in serum was first hydrolyzed into free cholesterol (FC) and fatty acid with cholesterol ester hydrolase (CEH). Then, all FC in serum was oxidized into ch-4-en-3-one and H2O2 with cholesterol oxidase (COD). The resulting H2O2 was reacted with 4-aminoantipyrine (4-AAP) and 4-chlorophenol in the presence of peroxidase (POD) (Trinder reaction), to yield red quinine imine, which was calorimetrically tested at a 500 nm wavelength.
The reaction temperature was 37° C. The triglyceride ire serum was first hydrolyzed into glycerol and fatty acid with lipoprotein lipase (LPL). The resulting glycerol was reacted with ATP in the presence of glycerol kinase (GK), to produce glycerol-3-phosphate and ADP. The resulting glycerol-3-phosphate was oxidized into dihydroxyacetone phosphate and H2O2 with oxygen in the presence of glycerol phosphate oxidase (GPO). The resulting H2O2 was reacted with 4-aminoantipyrine (4-AAP) and 4-chlorophenol in the presence of peroxidase (POD) (Trinder reaction), to yield red quinine imine, which was colorimetrically determined at a 500 nm wavelength.
The LDL in serum was precipitated using PVS. The serum TC and the Ch in the resulting supernatant were determined using the enzymatic methods described hereinabove, and the LDL-C was calculated by subtracting the Ch from the serum TC. The polyethylene glycol monoether (PEGME) was added in a suitable amount in order to facilitate the precipitation of LDL. […]

[2] = tested on: high lipid mode white rats; test: Therapeutic blood lipid lowering in hyperlipoidemia mode white rats (Example 3); type: in vivo, Wistar male white rats
From the text: High lipid feed formula: cholesterol 3%, lard 10%, sodium cholate 0.5%, basal feed: 86.5% (formula: flour 17.14%, rice flour 8.57%, maize 17.14%, bran 21%, fish flour 1.71%, dairy salt 0.857%, vitamin 0.085%, bean material 17.14%).
72 Wistar white male rats of 170±10 g of body weight were divided into 6 groups randomly and numbered. Each group included 12 rats. The rats were fed with common standard feed under experimental conditions and observed for 7 days, and its blood was sampled from tail for testing serum total cholesterol (TC). […] From the 8th day, the group I was set as a blank group, and was fed with common standard feed. Other groups were fed with high lipid feed for 8 days in a row, and the blood was sampled from tail on the next day for testing TC. […] The rats then were divided into 5 groups randomly (see table 12) according to TC levels. Each group included 10 rats (10 rats who were unsuccessful blood lipid modes were discarded). The rats were ted with high lipid teed continuously. Group was a high lipid feed mode control group. Group III was a Simvastatin 10 mg/kg group. Group IV was a GB-O group. Group V was a GB-H group. Group VI was a GB-K group. The high lipid feed mode control group was fed with high lipid feed together with distilled water. Groups III, IV, V, and VI were fed with high lipid feed together with required simvastatin, GB-O, GB-H, and GB-K suspensions (formulated by grinding with 0.5% sodium carboxymethycellulose CMC-Na) respectively. The dosing amount was 0.046 mmol/kg, and the amount of high lipid feed was 20 g per day for each rat. The grouping and the dosing amount for each group can be found in table 13.
as §1, with “rats for” for “rats in”, “dosed basing,” for “dosed basing”, “hours, the” for “hours, its”, “coagulate,” for “coagulate, and”, “using a” for “using the”
as §2, with “and are” for “and were”, “as means standard” for “as means±standard”
as §3, with “hydrolase (CEH.)” for “hydrolase (CEH).”, “and H2O2)” for “and H2O2”, “resulting H2O2,” for “resulting H2O2”, “was colarimetrically” for “was calorimetrically”, “at” for “at a”
The reaction temperature was 37° C. The triglyceride in serum was first hydrolyzed into glycerol and fatty acid with lipoprotein lipase (LPL). The resulting glycerol was reacted with ATP in the presence of glycerol kinase (GK), to produce glycerol-3-phosphate and ADP. The resulting glycerol-3-phosphate was oxidized into dihydroxyacetone phosphate and H2O2 with oxygen in the presence of glycerol phosphate oxidase (GPO). […]

[3] = group mean n=10, 15th day after administration
[4] = in comparison with group II (high lipid mode control group)
[5] = rats No. 1-10, 0.046 mmol/kg (Simvastatin 10 mg/kg), 15th day after administration

## O=C(O)/C=C/C=C/c1ccc2c(c1)OCO2 [GB-H, piperonyl pentadienoic acid]
[1]; Table 6, mean ± standard deviation, n=10
  Total cholesterol value: 13.23 ± 3.49
[1]; Table 7, mean ± standard deviation, n=10
  Triglyceride value: 1.31 ± 0.3219 mmol/L
[1]; Table 8, mean ± standard deviation, n=10
  Low density lipoprotein cholesterol: 4.298 ± 1.0578 mmol/L
[1]; Table 9, mean ± standard deviation, n=10
  High density lipoprotein cholesterol: 0.325 ± 0.0902 mmol/L
[1]; group mean n=10, 0.046 mmol/kg (Simvastatin 10 mg/kg), 15th day after administration
  serum total cholesterol (TC) contents, Mean: 13.23 mmol/L
[1]; [3]
  serum high density lipoprotein cholesterol (HDL) contents, Mean: 0.32 mmol/L
  serum low density lipoprotein cholesterol (LDL) contents, Mean: 4.29 mmol/L
  serum triglyceride (TG) contents, Mean: 1.31 mmol/L
[1]; [4]
  effect on serum low density lipoprotein cholesterol, in words: show the effect of lowering serum low density lipoprotein cholesterol value
  effect on serum total cholesterol, in words: extremely significant differences
[1]; in comparison with group II (high lipid mode control group), listed as GB-1-1
  effect on serum triglyceride, in words: extremely significant differences
[1]; [5]
  serum high density lipoprotein cholesterol (HDL) contents, individual rats: 0.26 mmol/L (2×) and 0.48 mmol/L and 0.18 mmol/L and 0.35 mmol/L and 0.28 mmol/L and 0.42 mmol/L and 0.41 mmol/L and 0.30 mmol/L and 0.31 mmol/L
  serum low density lipoprotein cholesterol (LDL) contents, individual rats: 4.53 mmol/L and 5.85 mmol/L and 4.24 mmol/L and 2.74 mmol/L and 4.19 mmol/L and 2.68 mmol/L and 5.09 mmol/L and 4.86 mmol/L and 3.51 mmol/L and 5.29 mmol/L
  serum triglyceride (TG) contents, individual rats: 1.15 mmol/L and 1.64 mmol/L and 1.71 mmol/L and 0.91 mmol/L and 0.88 mmol/L and 1.06 mmol/L and 1.58 mmol/L and 1.23 mmol/L and 1.70 mmol/L and 1.30 mmol/L
[1]; rats No. 1-10, high lipid feed plus drug 14 days, 0.046 mmol/kg (Simvastatin 10 mg/kg), 15th day after administration
  serum total cholesterol (TC) contents, individual rats: 16.64 mmol/L and 14.72 mmol/L and 10.11 mmol/L and 13.12 mmol/L and 9.56 mmol/L and 7.83 mmol/L and 12.22 mmol/L and 14.24 mmol/L and 14.28 mmol/L and 19.58 mmol/L
[2]; Table 18, mean ± standard deviation, n=10
  Total cholesterol value: 11.09 ± 1.82
[2]; Table 19, mean ± standard deviation, n=10
  Triglyceride value: 2.55 ± 0.42 mmol/L
[2]; Table 20, mean ± standard deviation, n=10
  Low density lipoprotein cholesterol: 3.34 ± 1.30 mmol/L
[2]; Table 21, mean ± standard deviation, n=10
  High density lipoprotein cholesterol: 0.67 ± 0.21 mmol/L
[2]; [3]
  serum high density lipoprotein cholesterol (HDL) contents, Mean: 0.67 mmol/L
  serum low density lipoprotein cholesterol (LDL) contents, Mean: 3.34 mmol/L
  serum total cholesterol (TC) contents, Mean: 11.09 mmol/L
  serum triglyceride (TG) contents, Mean: 2.55 mmol/L
[2]; [4]
  effect on serum high density lipoprotein cholesterol, in words: show the effect of some extent, of increasing high density lipoprotein cholesterol
  effect on serum low density lipoprotein cholesterol, in words: significant differences
  effect on serum total cholesterol, in words: extremely significant differences
  effect on serum triglyceride, in words: extremely significant differences
[2]; [5]
  serum high density lipoprotein cholesterol (HDL) contents, individual rats: 0.67 mmol/L and 0.85 mmol/L and 0.72 mmol/L and 0.77 mmol/L and 0.37 mmol/L and 0.46 mmol/L and 0.82 mmol/L and 0.73 mmol/L and 1.02 mmol/L and 0.35 mmol/L
  serum low density lipoprotein cholesterol (LDL) contents, individual rats: 2.22 mmol/L and 5.37 mmol/L (2×) and 2.03 mmol/L and 3.35 mmol/L and 3.61 mmol/L and 2.68 mmol/L and 2.09 mmol/L and 4.36 mmol/L and 2.34 mmol/L
  serum triglyceride (TG) contents, individual rats: 1.97 mmol/L and 2.08 mmol/L and 2.37 mmol/L and 2.61 mmol/L (2×) and 2.82 mmol/L and 2.47 mmol/L and 3.04 mmol/L and 2.23 mmol/L and 3.31 mmol/L
[2]; rats No. 1-10, hyperlipoidemia mode, drug 14 days, 0.046 mmol/kg (Simvastatin 10 mg/kg), 15th day after administration
  serum total cholesterol (TC) contents, individual rats: 12.34 mmol/L and 9.37 mmol/L and 12.03 mmol/L and 10.25 mmol/L and 10.37 mmol/L and 9.36 mmol/L (2×) and 11.28 mmol/L (2×) and 15.24 mmol/L
